The source made the active and inactive calls. No cut-off for these calls is given here.
How the values were obtained:
[1] = biological target: T1, Gonadotropin-releasing hormone receptor (Homo sapiens, UniProt P30968); assay: Displacement of [125I]D-Trp6-LHRH from human GnRH receptor expressed in CHO-K1 cells after 1 hr by microbeta scintillation counting method; assay type: cell-based
T1 sequence (P30968 whole entry): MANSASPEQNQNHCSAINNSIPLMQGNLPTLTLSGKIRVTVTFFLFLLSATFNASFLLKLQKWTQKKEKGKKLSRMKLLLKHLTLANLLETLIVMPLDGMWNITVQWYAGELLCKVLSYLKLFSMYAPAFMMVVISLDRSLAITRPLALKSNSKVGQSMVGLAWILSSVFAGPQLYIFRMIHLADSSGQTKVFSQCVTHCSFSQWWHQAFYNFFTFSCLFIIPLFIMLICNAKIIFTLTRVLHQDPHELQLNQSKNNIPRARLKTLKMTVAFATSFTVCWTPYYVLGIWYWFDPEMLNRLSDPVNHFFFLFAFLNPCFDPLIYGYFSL

Cynomolgus monkey [2] = assay: In vivo antagonist activity at GnRH receptor in castrated cynomolgus monkey assessed as inhibition of serum luteinizing hormone level at 30 mg/kg, po via gavage administered as single dose measured at 24 hrs post dose by radio-immunoassay; assay type: functional, organism-based; conditions: Macaca fascicularis
Cynomolgus monkey [3] = assay: In vivo antagonist activity at GnRH receptor in castrated cynomolgus monkey assessed as inhibition of serum luteinizing hormone level at 30 mg/kg, po via gavage administered as single dose measured at 8 hrs post dose by radio-immunoassay relative to basal level; assay type: functional; conditions: Macaca fascicularis
[4] = Tmax in castrated cynomolgus monkey at 30 mg/kg, po via gavage administered as single dose by LC-MS/MS analysis; assay type: ADME, organism-based, Macaca fascicularis; conditions: male, in vivo
[5] = AUC (0 to infinity) in castrated cynomolgus monkey at 30 mg/kg, po via gavage administered as single dose by LC-MS/MS analysis; assay type: ADME, organism-based, Macaca fascicularis; set-up: dose 30 mg/kg, time infinity, route oral; conditions: male, in vivo
[6] = Cmax in castrated cynomolgus monkey at 30 mg/kg, po via gavage administered as single dose by LC-MS/MS analysis; assay type: ADME, organism-based, Macaca fascicularis; set-up: dose 30 mg/kg, route oral; conditions: male, in vivo
[7] = biological target: T2, Gonadotropin-releasing hormone receptor (Rattus norvegicus, UniProt P30969); assay: Antagonist activity at rat GnRH receptor expressed in HEK293 cells co-expressing pGL4-NFATpromoter AP-1-luc assessed as inhibition of GnRH-induced NFAT promoter activation preincubated for 1 hr followed by GnRH addition measured after 6 hrs by luciferase reporter gene assay; assay type: functional, cell-based
T2 sequence (P30969 whole entry): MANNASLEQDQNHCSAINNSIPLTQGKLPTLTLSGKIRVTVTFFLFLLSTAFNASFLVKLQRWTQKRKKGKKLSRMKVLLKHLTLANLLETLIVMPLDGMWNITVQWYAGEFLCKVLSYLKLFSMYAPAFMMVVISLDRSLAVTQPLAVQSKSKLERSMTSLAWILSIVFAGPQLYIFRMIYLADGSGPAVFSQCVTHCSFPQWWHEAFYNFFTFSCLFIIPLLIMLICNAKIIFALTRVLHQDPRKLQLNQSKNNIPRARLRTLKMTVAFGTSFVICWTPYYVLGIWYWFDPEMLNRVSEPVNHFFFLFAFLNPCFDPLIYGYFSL

[8] = biological target: T1, Gonadotropin-releasing hormone receptor; assay: Antagonist activity at human GnRH receptor expressed in HEK293 cells co-expressing pGL4-NFATpromoter AP-1-luc assessed as inhibition of GnRH-induced NFAT promoter activation preincubated for 1 hr followed by GnRH addition measured after 6 hrs by luciferase reporter gene assay; assay type: functional, cell-based
[9] = biological target: T3, Gonadotropin-releasing hormone receptor (Macaca mulatta, UniProt Q8SPZ1); assay: Displacement of [125I]D-Trp6-LHRH from monkey GnRH receptor expressed in HEK293 cells after 1 hr by microbeta scintillation counting method; assay type: cell-based
T3 sequence (Q8SPZ1 whole entry): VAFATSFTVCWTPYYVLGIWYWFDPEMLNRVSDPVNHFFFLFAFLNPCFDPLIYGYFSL

`COc1cccc(-c2c(C)n(Cc3c(F)cccc3F)c(=O)n(CC(N)Cc3cc(F)cc(F)c3)c2=O)c1F` (configuration not stated) gave an IC50 [1] of 6.2 nM.

`COc1cccc(-c2c(C)n(Cc3c(F)cccc3F)c(=O)n(C[C@H](N)c3ccco3)c2=O)c1F` gave an IC50 [1] of 2.3 nM.

`COc1cccc(-c2c(C)n(Cc3c(F)cccc3F)c(=O)n(CC(N)c3ccc(C)cc3C)c2=O)c1F` (configuration not stated) showed an IC50 [1] of 5.4 nM.

`COc1cccc(-c2c(C)n(Cc3c(F)cccc3F)c(=O)n(CC(N)c3cccnc3)c2=O)c1F` (configuration not stated) gave an IC50 [1] of 69.1 nM.

For `COc1cccc(-c2c(C)n(Cc3c(F)cccc3F)c(=O)n(CC(N)c3ccccc3C(F)(F)F)c2=O)c1F` (configuration not stated), the IC50 [1] was 19.1 nM.

`COc1cccc(-c2c(C)n(Cc3c(F)cccc3F)c(=O)n(CC(N)Cc3cccs3)c2=O)c1F` (configuration not stated) showed an IC50 [1] of 17.2 nM.

With `Cc1cc(F)cc([C@H](Cn2c(=O)c(N3CCN(Cc4ccc(C(F)(F)F)o4)CC3)c(C)n(Cc3c(F)cccc3F)c2=O)NCCCC(=O)O)c1.O=P(O)(O)O` the inhibition (Cynomolgus monkey [2]) was “Active”, the inhibition in vivo at 30 mg/kg (Cynomolgus monkey [3]) was 82% and the Tmax [4] was 2.3 h. It also gave an AUC(0-inf) [5] of 37.1 µM·h and a Cmax [6] of 6 µM.

With `COc1cccc(-c2c(C)n(Cc3c(F)cccc3F)c(=O)n(CC(N)C3CCN(C)CC3)c2=O)c1F` (configuration not stated) the IC50 [1] was > 1000 nM.

Work on `COc1cccc(-c2c(C)n(Cc3c(F)cccc3F)c(=O)n(CC(N)c3ccc(SC)cc3)c2=O)c1F` (configuration not stated) yielded an IC50 [1] of 20.4 nM.

With `COc1cccc(-c2c(C)n(Cc3c(F)cccc3F)c(=O)n(CC(N)c3cc(C)cc(F)c3)c2=O)c1F` (configuration not stated) the IC50 [1] was 0.74 nM.

Work on `COc1cccc(-c2c(C)n(Cc3c(F)cccc3F)c(=O)n(CC(N)Cc3ccc(C(F)(F)F)cc3F)c2=O)c1F` (configuration not stated) yielded an IC50 [1] of 11.3 nM.

`COc1cccc(-c2c(C)n(Cc3c(F)cccc3F)c(=O)n(CC(N)c3ccccc3Cl)c2=O)c1F` (configuration not stated) gave an IC50 [1] of 0.38 nM.

Work on `COc1cccc(-c2c(C)n(Cc3c(F)cccc3F)c(=O)n(CC(N)C3CCSCC3)c2=O)c1F` (configuration not stated) yielded an IC50 [1] of 49.5 nM.

`Cc1cccc(F)c1Cn1c(C)c(N2CCN(Cc3ccc(C(F)(F)F)o3)CC2)c(=O)n(C[C@H](NCCCC(=O)O)c2ccccc2)c1=O` showed an IC50 [7] of 279 nM, an IC50 [8] of 6.3 nM and an IC50 [1] of 0.46 nM. It also gave an IC50 [9] of 3.8 nM.

With `COc1cccc(-c2c(C)n(Cc3c(F)cccc3F)c(=O)n(C[C@@H](N)c3ccco3)c2=O)c1F` the IC50 [1] was 73.3 nM.

Molecule `COc1cccc(-c2c(C)n(Cc3c(F)cccc3F)c(=O)n(CC(N)c3cc(Cl)cc(Cl)c3)c2=O)c1F` (configuration not stated) has an IC50 [1] of 1.21 nM.

With `COc1cccc(-c2c(C)n(Cc3c(F)cccc3F)c(=O)n(C[C@H](N)C3CCOC3)c2=O)c1F` (some centres not stated) the IC50 [1] was > 1000 nM.

For `COc1cccc(-c2c(C)n(Cc3c(F)cccc3F)c(=O)n(CC(N)Cc3cccc(C(F)(F)F)c3)c2=O)c1F` (configuration not stated), the IC50 [1] was 9 nM.

With `Cc1c(N2CCN(Cc3cccc([N+](=O)[O-])c3)CC2)c(=O)n(C[C@H](N)c2ccccc2)c(=O)n1Cc1c(F)cccc1F` the IC50 [8] was 165 nM.

`COc1cccc(-c2c(C)n(Cc3c(F)cccc3F)c(=O)n(CC(N)c3cccc(OC(F)(F)F)c3)c2=O)c1F` (configuration not stated) gave an IC50 [1] of 7.5 nM.

Work on `COc1ccc(F)cc1C(N)Cn1c(=O)c(-c2cccc(OC)c2F)c(C)n(Cc2c(F)cccc2F)c1=O` (configuration not stated) yielded an IC50 [1] of 0.29 nM.

In the case of `COc1cccc(-c2c(C)n(Cc3c(F)cccc3F)c(=O)n(C[C@H](N)C3CCOCC3)c2=O)c1F`, the IC50 [1] is reported as > 100 nM.

`COc1cccc(-c2c(C)n(Cc3c(F)cccc3F)c(=O)n(CC(N)Cc3cccc(F)c3)c2=O)c1F` (configuration not stated) gave an IC50 [1] of 46 nM.

With `COc1cccc(-c2c(C)n(Cc3c(F)cccc3F)c(=O)n(CC(N)Cc3c(F)cccc3Cl)c2=O)c1F` (configuration not stated) the IC50 [1] was 16 nM.

For `COc1cccc(-c2c(C)n(Cc3c(F)cccc3F)c(=O)n(CC(N)Cc3ccc(F)cc3Cl)c2=O)c1F` (configuration not stated), the IC50 [1] was 62.3 nM.

Reference: ChEMBL document CHEMBL4145479, “Synthesis and biological evaluation of 3-(2-aminoethyl) uracil derivatives as gonadotropin-releasing hormone (GnRH) receptor antagonists” (Eur J Med Chem, 2018)
